Measurements published in US9944602B2, “Piperidinone herbicides” (E. I. DU PONT DE NEMOURS AND COMPANY, priority 2014, dated 2018).

Experiments:
Type in all cases: in vivo
[1] = test system: barnyardgrass (Echinochloa crus-galli); experiment: Test A preemergence barnyardgrass; conditions: 0 to 100 scale, 0 no effect, 100 complete control
How it was run: (§1)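 Compounds in non-phytotoxic solvent with surfactant, applied preemergence as directed soil spray on seeds in loam–sand blend, or postemergence to plants 2–10 cm tall at one- to two-leaf stage. Greenhouse ~10 d, then visual injury versus untreated controls, 0 (no effect) to 100 (complete control).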

[2] = test system: ragweed (common ragweed, Ambrosia elatior); experiment: Test A preemergence ragweed; conditions: 0 to 100 scale, 0 no effect, 100 complete control
How it was run: as §1

[3] = test system: sedge, umbrella (small-flower umbrella sedge, Cyperus difformis); experiment: Test B flooded paddy test sedge, umbrella; conditions: Table B, Flood, 500 g ai/ha, scale 0 to 100
How it was run: (§2)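 2-leaf plants; flood 3 cm over soil; cpd into paddy water; water depth kept; greenhouse 13–15 d; visual rating vs controls.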

kochia (Kochia scoparia) [4] = experiment: Test A preemergence kochia; conditions: 0 to 100 scale, 0 no effect, 100 complete control
How it was run: as §1

[5] = test system: ducksalad (Heteranthera limosa); experiment: Test C flooded paddy test ducksalad; conditions: Table C, Flood, scale 0 to 100
Source text: (§3) Plant species in the flooded paddy test consisted of rice (Oryza sativa), sedge, umbrella (small-flower umbrella sedge, Cyperus difformis), ducksalad (Heteranthera limosa), and barnyardgrass (Echinochloa crus-galli) grown to the 2-leaf stage for testing. At time of treatment, test pots were flooded to 3 cm above the soil surface, treated by application of test compounds directly to the paddy water, and then maintained at that water depth for the duration of the test. Treated plants and controls were maintained in a greenhouse for 13 to 15 d, after which time all species were compared to controls and visually evaluated. Plant response ratings, summarized in Table C, are based on a scale of 0 to 100 where 0 is no effect and 100 is complete control. A dash (-) response means no test result.

[6] = test system: foxtail, giant (giant foxtail, Setaria faberii); experiment: Test A preemergence foxtail, giant; conditions: 0 to 100 scale, 0 no effect, 100 complete control
How it was run: as §1

[7] = test system: sedge, umbrella (small-flower umbrella sedge, Cyperus difformis); experiment: Test C flooded paddy test sedge, umbrella; conditions: Table C, Flood, scale 0 to 100
Source text: as §3

rice (Oryza sativa) [8] = experiment: Test B flooded paddy test rice; conditions: Table B, Flood, 500 g ai/ha, scale 0 to 100
How it was run: as §2

[9] = test system: foxtail, giant (giant foxtail, Setaria faberii); experiment: Test A postemergence foxtail, giant; conditions: 0 to 100 scale, 0 is no effect, 100 is complete control
How it was run: as §1

rice (Oryza sativa) [10] = experiment: Test C flooded paddy test rice; conditions: Table C, Flood, scale 0 to 100
Source text: as §3

[11] = test system: ducksalad (Heteranthera limosa); experiment: Test B flooded paddy test ducksalad; conditions: Table B, Flood, 500 g ai/ha, scale 0 to 100
How it was run: as §2

[12] = test system: wheat (Triticum aestivum); experiment: Test A postemergence wheat; conditions: 0 to 100 scale, 0 is no effect, 100 is complete control
How it was run: as §1

[13] = test system: barnyardgrass (Echinochloa crus-galli); experiment: Test B flooded paddy test barnyardgrass; conditions: Table B, Flood, 500 g ai/ha, scale 0 to 100
How it was run: as §2

[14] = test system: pigweed (Amaranthus retroflexus); experiment: Test A preemergence pigweed; conditions: 0 to 100 scale, 0 no effect, 100 complete control
How it was run: as §1

kochia (Kochia scoparia) [15] = experiment: Test A postemergence kochia; conditions: 0 to 100 scale, 0 is no effect, 100 is complete control
How it was run: as §1

[16] = test system: barnyardgrass (Echinochloa crus-galli); experiment: Test C flooded paddy test barnyardgrass; conditions: Table C, Flood, scale 0 to 100
Source text: as §3

[17] = test system: blackgrass (Alopecurus myosuroides); experiment: Test A postemergence blackgrass; conditions: 0 to 100 scale, 0 is no effect, 100 is complete control
How it was run: as §1

[18] = test system: galium (catchweed bedstraw, Galium aparine); experiment: Test A postemergence galium; conditions: 0 to 100 scale, 0 is no effect, 100 is complete control
How it was run: as §1

[19] = test system: ragweed (common ragweed, Ambrosia elatior); experiment: Test A postemergence ragweed; conditions: 0 to 100 scale, 0 is no effect, 100 is complete control
How it was run: as §1

[20] = test system: barnyardgrass (Echinochloa crus-galli); experiment: Test A postemergence barnyardgrass; conditions: 0 to 100 scale, 0 is no effect, 100 is complete control
How it was run: as §1

corn (Zea mays) = experiment: Test A postemergence corn; conditions: 0 to 100 scale, 0 is no effect, 100 is complete control
How it was run: as §1

[21] = test system: ryegrass, Italian (Italian ryegrass, Lolium multiflorum); experiment: Test A postemergence ryegrass, Italian; conditions: 0 to 100 scale, 0 is no effect, 100 is complete control
How it was run: as §1

[22] = test system: pigweed (Amaranthus retroflexus); experiment: Test A postemergence pigweed; conditions: 0 to 100 scale, 0 is no effect, 100 is complete control
How it was run: as §1

[23] = test system: ryegrass, Italian (Italian ryegrass, Lolium multiflorum); experiment: Test A preemergence ryegrass, Italian; conditions: 0 to 100 scale, 0 no effect, 100 complete control
How it was run: as §1

## O=C1NCCC(c2cccc(C(F)(F)F)c2)C1C(=O)Nc1cccc(Cl)c1F (racemic) [Compound 16]
[1]; 125 g ai/ha
  Barnyardgrass plant response rating: 70
[1]; 500 g ai/ha
  Barnyardgrass plant response rating: 90
[2]; 125 g ai/ha
  Ragweed plant response rating: 0
[2]; 500 g ai/ha
  Ragweed plant response rating: 0
[3]
  Plant response rating: 0
Kochia (Kochia scoparia) [4]; 125 g ai/ha
  Kochia plant response rating: 30
Kochia (Kochia scoparia) [4]; 500 g ai/ha
  Kochia plant response rating: 50
[5]; 31 g ai/ha
  Plant response rating: 0
[5]; 62 g ai/ha
  Plant response rating: 0
[5]; 125 g ai/ha
  Plant response rating: 0
[5]; 250 g ai/ha
  Plant response rating: 0
[6]; 125 g ai/ha
  Foxtail, Giant plant response rating: 90
[6]; 500 g ai/ha
  Foxtail, Giant plant response rating: 90
[7]; 31 g ai/ha
  Plant response rating: 0
[7]; 62 g ai/ha
  Plant response rating: 0
[7]; 125 g ai/ha
  Plant response rating: 0
[7]; 250 g ai/ha
  Plant response rating: 0
Rice (Oryza sativa) [8]
  Plant response rating: 0
[9]; 125 g ai/ha
  Plant response rating, Foxtail, Giant: 80
[9]; 500 g ai/ha
  Plant response rating, Foxtail, Giant: 80
Rice (Oryza sativa) [10]; 31 g ai/ha
  Plant response rating: 0
Rice (Oryza sativa) [10]; 62 g ai/ha
  Plant response rating: 0
Rice (Oryza sativa) [10]; 125 g ai/ha
  Plant response rating: 0
Rice (Oryza sativa) [10]; 250 g ai/ha
  Plant response rating: 0
[11]
  Plant response rating: 0
[12]; 125 g ai/ha
  Plant response rating, Wheat: 20
[12]; 500 g ai/ha
  Plant response rating, Wheat: 30
[13]
  Plant response rating: 0
[14]; 125 g ai/ha
  Pigweed plant response rating: 0
[14]; 500 g ai/ha
  Pigweed plant response rating: 0
Kochia (Kochia scoparia) [15]; 125 g ai/ha
  Plant response rating, Kochia: 0
Kochia (Kochia scoparia) [15]; 500 g ai/ha
  Plant response rating, Kochia: 20
[16]; 31 g ai/ha
  Plant response rating: 0
[16]; 62 g ai/ha
  Plant response rating: 0
[16]; 125 g ai/ha
  Plant response rating: 0
[16]; 250 g ai/ha
  Plant response rating: 0
[17]; 125 g ai/ha
  Plant response rating, Blackgrass: 40
[17]; 500 g ai/ha
  Plant response rating, Blackgrass: 60
[18]; 125 g ai/ha
  Plant response rating, Galium: 20
[18]; 500 g ai/ha
  Plant response rating, Galium: 20
[19]; 125 g ai/ha
  Plant response rating, Ragweed: 0
[19]; 500 g ai/ha
  Plant response rating, Ragweed: 0
[20]; 125 g ai/ha
  Plant response rating, Barnyardgrass: 70
[20]; 500 g ai/ha
  Plant response rating, Barnyardgrass: 90
Corn (Zea mays); 125 g ai/ha
  Plant response rating, Corn: 0
Corn (Zea mays); 500 g ai/ha
  Plant response rating, Corn: 30
[21]; 125 g ai/ha
  Plant response rating, Ryegrass, Italian: 0
[21]; 500 g ai/ha
  Plant response rating, Ryegrass, Italian: 20
[22]; 125 g ai/ha
  Plant response rating, Pigweed: 0
[22]; 500 g ai/ha
  Plant response rating, Pigweed: 0
[23]; 125 g ai/ha
  Ryegrass, Italian plant response rating: 20
[23]; 500 g ai/ha
  Ryegrass, Italian plant response rating: 40

## O=C1NCCC(c2cccc(C(F)(F)F)c2)C1C(=O)Nc1cccc(F)c1Cl (racemic) [Compound 19]
[1]; 125 g ai/ha
  Barnyardgrass plant response rating: 70
[1]; 500 g ai/ha
  Barnyardgrass plant response rating: 80
[2]; 125 g ai/ha
  Ragweed plant response rating: 0
[2]; 500 g ai/ha
  Ragweed plant response rating: 20
[3]
  Plant response rating: 0
Kochia (Kochia scoparia) [4]; 125 g ai/ha
  Kochia plant response rating: 0
Kochia (Kochia scoparia) [4]; 500 g ai/ha
  Kochia plant response rating: 20
[5]; 31 g ai/ha
  Plant response rating: 0
[5]; 62 g ai/ha
  Plant response rating: 0
[5]; 125 g ai/ha
  Plant response rating: 0
[5]; 250 g ai/ha
  Plant response rating: 0
[6]; 125 g ai/ha
  Foxtail, Giant plant response rating: 80
[6]; 500 g ai/ha
  Foxtail, Giant plant response rating: 90
[7]; 31 g ai/ha
  Plant response rating: 0
[7]; 62 g ai/ha
  Plant response rating: 0
[7]; 125 g ai/ha
  Plant response rating: 0
[7]; 250 g ai/ha
  Plant response rating: 0
Rice (Oryza sativa) [8]
  Plant response rating: 0
[9]; 125 g ai/ha
  Plant response rating, Foxtail, Giant: 70
[9]; 500 g ai/ha
  Plant response rating, Foxtail, Giant: 80
Rice (Oryza sativa) [10]; 31 g ai/ha
  Plant response rating: 0
Rice (Oryza sativa) [10]; 62 g ai/ha
  Plant response rating: 0
Rice (Oryza sativa) [10]; 125 g ai/ha
  Plant response rating: 0
Rice (Oryza sativa) [10]; 250 g ai/ha
  Plant response rating: 0
[11]
  Plant response rating: 60
[12]; 125 g ai/ha
  Plant response rating, Wheat: 0
[12]; 500 g ai/ha
  Plant response rating, Wheat: 30
[13]
  Plant response rating: 60
[14]; 125 g ai/ha
  Pigweed plant response rating: 0
[14]; 500 g ai/ha
  Pigweed plant response rating: 0
Kochia (Kochia scoparia) [15]; 125 g ai/ha
  Plant response rating, Kochia: 0
Kochia (Kochia scoparia) [15]; 500 g ai/ha
  Plant response rating, Kochia: 20
[16]; 31 g ai/ha
  Plant response rating: 0
[16]; 62 g ai/ha
  Plant response rating: 0
[16]; 125 g ai/ha
  Plant response rating: 0
[16]; 250 g ai/ha
  Plant response rating: 0
[17]; 125 g ai/ha
  Plant response rating, Blackgrass: 40
[17]; 500 g ai/ha
  Plant response rating, Blackgrass: 50
[18]; 125 g ai/ha
  Plant response rating, Galium: 20
[18]; 500 g ai/ha
  Plant response rating, Galium: 20
[19]; 125 g ai/ha
  Plant response rating, Ragweed: 0
[19]; 500 g ai/ha
  Plant response rating, Ragweed: 0
[20]; 125 g ai/ha
  Plant response rating, Barnyardgrass: 60
[20]; 500 g ai/ha
  Plant response rating, Barnyardgrass: 80
Corn (Zea mays); 125 g ai/ha
  Plant response rating, Corn: 0
Corn (Zea mays); 500 g ai/ha
  Plant response rating, Corn: 50
[21]; 125 g ai/ha
  Plant response rating, Ryegrass, Italian: 0
[21]; 500 g ai/ha
  Plant response rating, Ryegrass, Italian: 20
[22]; 125 g ai/ha
  Plant response rating, Pigweed: 0
[22]; 500 g ai/ha
  Plant response rating, Pigweed: 0
[23]; 125 g ai/ha
  Ryegrass, Italian plant response rating: 20
[23]; 500 g ai/ha
  Ryegrass, Italian plant response rating: 30
